Assay results published in patent US20240139167A1, “LYSOSOME-ASSOCIATED MEMBRANE PROTEIN TARGETING COMPOUNDS AND USES THEREOF” (HADASIT MEDICAL RESEARCH SERVICES AND DEVELOPMENT LTD., priority 2021, published 2024).
“Also recorded” adds a separate entry of the source.

How the values were obtained:
[1] = Safety assessment in wild type mice, 3 months; format: in vivo
Protocol: FIG. 10 includes a graph of the body weights of wild type C57B16J mice treated with Compound 1 for 3 months. Mice were injected twice a week with 150 μL of Compound 1 at 250 mg/kg in 5% DMSO, or an equal volume of 5% DMSO (V, vehicle) control. Injections were intravenous for the first month and then subcutaneously for the following 2 months;
FIG. 11 includes images of brain, liver, skeletal muscle, and heart tissue slices of wild type C57B16J mice treated for 3 months with Compound 1. The slices were stained by H&E staining in order to visualize lesions. No lesions were apparent in either treatment. Scale bars, 500 μm (brain), 100 μm (liver), 200 µm (muscle), 100 μm (heart).
The inventors have tested Compound 1 (FIG. 1A) for its capacity to correct the deficient motor phenotypes and short lifespan in the APBD mouse model Gbe^ys/ys. Compound 1 is one of 19 PG reducing HTS hits previously discovered by the inventors. It was selected by in silico ADMET (Absorption, Distribution, Metabolism, Excretion, and Toxicity) tests run on these hits to predict which of them should be safe and pharmacokinetically and pharmacodynamically preferred and is therefore worth further pursuit (FIG. 8, compound “A”). […] Following 1 h and 24 h treatments, mice were also examined for abnormal spontaneous behavior, such as immobility, excessive running, stereotyped movements, and abnormal posture (Irwin tests).

[2] = tested on: PD primary fibroblasts; assay: PAS staining of glycogen in Pompe disease fibroblasts; format: cell-based, human; conditions: 24 h, 50 μM; listed as 144DG11
Source text: Yellow, Calcein used for cell segmentation, Blue, DAPI nuclear stain.

[3] = tested on: APBD and HC skin fibroblasts; assay: Image-based phenotyping (IBP); format: cell-based, human
Source text: FIGS. 7A-7F include graphs of IBP parameters in HC and APBD fibroblasts and variable importance plot as an output of the random forest classification performed on the different variables (cell features) indicated on the x-axis. […] The different comparisons analyzed (comp A=Compound 1) are shown (7B); bar graphs of lysosomal parameters affected by Compound 1 in APBD and HC cells as analyzed by IBP (7C); Volcano plots of the proteins affected by APBD and Compound 1 under starvation and glycogen burden conditions (7D); Venn diagrams of proteins down-modulated by APBD and up modulated by Compound 1 and vice versa under starvation (48) and glycogen burden (48+24) conditions (7E); and gene ontology of proteins up-modulated (left) and down-modulated (right) by Compound 1 (7F).
APBD skin fibroblasts were seeded at 1,000 cells/well and cultured in specialized microscopy-grade 96-well plates (Grenier Bio-One, Germany). Following the different treatments, a mix of Thermo Scientific cellular fluorescent dyes in PBS was added to each well for 30 min at 37° C. in a 5% CO2 incubator. This mix (FIGS. 4C and 7B) included DAPI (1 μg/ml, nuclear (DNA) stain), MitoTracker Green (500 nM, potential-independent mitochondrial stain), TMRE ([…] mitochondrial stain), and Cell Mask Deep Red (0.5 μg/ml, cytosol stain). In FIG. 7C, only lysosomes were stained with LysoTracker Deep Red (75 nM). Cells were then fixed with 4% paraformaldehyde (PFA), washed with PBS and plates were transferred to an InCell2200 (GE Healthcare, U.K.) machine for image acquisition at 40× magnification. The output produced was based on comparative fluorescence intensity. Object segmentation was carried out using multi-target analysis in the GE analysis workstation to identify the nuclei and cell boundary. […]
As a first step, the inventors required a classification method, both wholistic and feature-specific, which would enable to quantify differences between APBD and HC cells and thus to estimate the restorative effect of Compound 1 on APBD cells. […]

[4] = tested on: APBD primary fibroblasts; assay: Autophagic flux (LC3II/LC3I with lysosomal inhibitors, p62); format: cell-based, human
Source text: FIGS. 6A-6E include bar graphs of autophagic flux, determined by the extent of lysosomal inhibitors-dependent increase in the ratio of lipidated to non-lipidated LC3 (LC3II/LC3I) (6A); representative TEM images of liver tissue from 9.5 month old Gbe^ys/ys mice treated with Compound 11, or 5% DMSO vehicle (6B), G: Glycogen (alpha particles) and polyglucosan (structures with variable electron densities), L: Lysosomes, M: Mitochondria; right panel: lysosomal glycogen stain was quantified by ImageJ “count particle” tool; micrograph of LAMP1 knocked down and control APBD primary skin fibroblasts treated or not with Compound 1 and lysosomal inhibitors (LI) and quantification of 3 experiments and results of Student's t-tests. *, p<0.1; **, p<0.05; ***, p<0.01 (6C); graphs of lysosomal pH changes determined in APBD primary fibroblasts transduced with lentiviruses encoding for GFP or GFP-shLAMP1 and treated or not with Compound 1 for 24 h and confocal microscope images of cells treated with Lysosensor and stained for PAS (6D); and bar graph of ATP production rate assay in LAMP1-KD and GFP (Control) cells treated for 24 h (chronic) or on assay (acute) with Compound 1 (6E).

COCCN(Cc1sccc1C)C(=O)c1cc(C)nc(O)c1 [Compound 1]
animals' weight gain over time ([1]; 3 months at 250 mg/kg in 5% DMSO): did not influence | histopathological damage or lesions in brain, liver, skeletal muscle, and heart ([1]; after 3 months exposure): did not produce any histopathological damage or lesions | glycogen (PAS staining) [2]: reduce glycogen; also recorded: significantly lowered PAS staining | IBP signature, features affected [3]: mostly affected nuclear and mitochondrial membrane potential (TMRE) parameters | lysosomal size ([3]; APBD cells): reduced lysosomal size | mitochondrial membrane potential (MMP) ([3]; APBD cells): hyperpolarized | autophagic flux (sensitivity of LC3ii/LC3i ratio to lysosomal inhibitors) [4]: increased autophagic flux | level of the autophagy substrate p62 [4]: lowering the level of the autophagy substrate p62
